# Experimental data as given in US6784137B2, “6-aryl-4-aminopicolinates and their use as herbicides” (Dow AgroSciences LLC, priority 2001, dated 2004).
# Where two headings read alike, the source gives them in different places.
# What was measured:
# [1] = system: Cocklebur (Xanthium strumarium); assay: Postemergence herbicidal activity, greenhouse spray; format: in vivo; settings: visual score after 2 weeks; for pest or weed control at 500 ppm / pest or weed control at 250 ppm / pest or weed control at 125 ppm: Xanthium strumarium, post-emergence, 336 h, read-out: Post-emergent % control XANST; for pest or weed control at 250 ppm: rate 250 ppm
# Protocol: (§1) When required to ensure good germination and healthy plants, a fungicide treatment and/or other chemical or physical treatment was applied. The plants were grown for 7-21 days in a greenhouse with an approximate 15 hr photoperiod which was maintained at about 23-29° C. during the day and 22-28° C. during the night. Nutrients and water were added on a regular basis and supplemental lighting was provided with overhead metal halide 1000-Watt lamps as necessary. The plants were employed for testing when they reached the first or second true leaf stage. A weighed amount, determined by the highest rate to be tested, of each test compound was placed in a 20 mL glass vial and was dissolved in 4 mL of a 97:3 v/v (volume/volume) mixture of acetone and dimethyl sulfoxide (DMSO) to obtain concentrated stock solutions. […] The concentrated stock solutions obtained were diluted with an aqueous mixture containing acetone, water, isopropyl alcohol, DMSO, At plus 411 F crop oil concentrate, and Triton X-155 surfactant in a 48.5:39:10:1.5:1.0:0.02 v/v ratio to obtain spray solutions of known concentration. The solutions containing the highest concentration to be tested were prepared by diluting 2 mL aliquots of the stock solution with 13 mL of the mixture and lower concentrations were prepared by serial dilution of the stock solution. Approximately 1.5 mL aliquots of each solution of known concentration were sprayed evenly onto each of the test plant pots using a DeVilbiss atomizer driven by compressed air pressure of 2 to 4 psi (140 to 280 kiloPascals) to obtain thorough coverage of each plant. Control plants were sprayed in the same manner with the aqueous mixture. […] The treated plants and control plants were placed in a greenhouse as described above and watered by sub-irrigation to prevent wash-off of the test compounds.
# [2] = system: Yellow nutsedge (Cyperus esculentus); assay: as above; format: in vivo; settings: visual score after 2 weeks; for pest or weed control at 500 ppm / pest or weed control at 250 ppm / pest or weed control at 125 ppm: Cyperus, post-emergence, 336 h, read-out: Post-emergent % control CYPES; for pest or weed control at 250 ppm: rate 250 ppm
# Protocol: as §1
# [3] = system: Barnyardgrass (Echinochloa crus-galli); assay: as above; format: in vivo; settings: visual score after 2 weeks; for pest or weed control at 500 ppm / pest or weed control at 250 ppm / pest or weed control at 125 ppm: Echinochloa crus-galli, post-emergence, 336 h, read-out: Post-emergent % control ECHCG; for pest or weed control at 250 ppm: rate 250 ppm
# Protocol: as §1
# [4] = system: Lambsquarter (Chenopodium album); assay: as above; format: in vivo; settings: visual score after 2 weeks; for pest or weed control at 500 ppm / pest or weed control at 250 ppm / pest or weed control at 125 ppm: Chenopodium album, post-emergence, 336 h, read-out: Post-emergent % control CHEAL; for pest or weed control at 250 ppm: rate 250 ppm
# Protocol: as §1
# [5] = Table 1, rate 500 ppm, 0 no injury, 100 complete kill
smiles,measurement,setting,value
"COC(=O)c1nc(-c2ccccc2F)cc(N)c1Cl [Compound 33, Methyl 4-amino-3-chloro-6-(2-fluorophenyl)pyridine-2-carboxylate]",pest or weed control at 500 ppm,[1]; [5],100%
same,pest or weed control at 500 ppm,"[2]; Table 1, rate 500 ppm",10%
same,pest or weed control at 500 ppm,"[3]; Table 1, rate 500 ppm",30%
same,pest or weed control at 500 ppm,"[4]; Table 1, rate 500 ppm",100%
"COC(=O)c1nc(-c2ccc(C(F)(F)F)cc2)c(Cl)c(N)c1Cl [Compound 44, Methyl 4-amino-3,5-dichloro-6-[4-(trifluoromethyl)phenyl]pyridine-2-carboxylate]",pest or weed control at 250 ppm,[1]; Table 1,100%
same,pest or weed control at 250 ppm,[2]; Table 1,70%
same,pest or weed control at 250 ppm,[3]; Table 1,30%
same,pest or weed control at 250 ppm,[4]; Table 1,80%
same,melting point,,110 to 111 °C
"COC(=O)c1nc(-c2ccc3ccccc3c2)cc(N)c1Cl [Compound 47, Methyl 4-amino-3-chloro-6-(2-naphthyl)pyridine-2-carboxylate]",pest or weed control at 500 ppm,[1]; [5],90%
same,pest or weed control at 500 ppm,"[2]; Table 1, rate 500 ppm",0%
same,pest or weed control at 500 ppm,"[3]; Table 1, rate 500 ppm",80%
same,pest or weed control at 500 ppm,"[4]; Table 1, rate 500 ppm",90%
same,melting point,,108 to 109 °C
"COC(=O)c1nc(-c2ccc(Cl)cc2Cl)c(F)c(NC(C)=O)c1Cl [Compound 49, Methyl 4-acetamido-3-chloro-5-fluoro-6-(2,4-dichlorophenyl)pyridine-2-carboxylate]",pest or weed control at 125 ppm,"[1]; Table 1, rate 125 ppm",100%
same,pest or weed control at 125 ppm,"[2]; Table 1, rate 125 ppm",30%
same,pest or weed control at 125 ppm,"[3]; Table 1, rate 125 ppm",10%
same,pest or weed control at 125 ppm,"[4]; Table 1, rate 125 ppm",80%
same,melting point,,178 to 179 °C
"COC(=O)c1nc(-c2ccc3c(c2)CCO3)c(F)c(N)c1Cl [Compound 85, Methyl 4-amino-3-chloro-5-fluoro-6-(2,3-dihydro-5-benzofuranyl)pyridine-2-carboxylate]",pest or weed control at 250 ppm,[1]; Table 1,100%
same,pest or weed control at 250 ppm,[2]; Table 1,70%
same,pest or weed control at 250 ppm,[3]; Table 1,99%
same,pest or weed control at 250 ppm,[4]; Table 1,100%
same,melting point,,120 °C
"COC(=O)c1nc(-c2ccc(C(F)(F)F)cc2)c(F)c(N)c1F [Compound 94, Methyl 4-amino-3,5-difluoro-6-[4-(trifluoromethyl)phenyl]pyridine-2-carboxylate]",pest or weed control at 500 ppm,[1]; [5],100%
same,pest or weed control at 500 ppm,"[2]; Table 1, rate 500 ppm",90%
same,pest or weed control at 500 ppm,"[3]; Table 1, rate 500 ppm",90%
same,pest or weed control at 500 ppm,"[4]; Table 1, rate 500 ppm",100%
same,melting point,,177 to 178 °C
"COC(=O)c1nc(-c2ccc3c(c2)OCO3)c(F)c(N)c1F [Compound 95, Methyl 4-amino-3,5-difluoro-6-(3,4-methylenedioxyphenyl)pyridine-2-carboxylate]",pest or weed control at 125 ppm,"[1]; Table 1, rate 125 ppm",80%
same,pest or weed control at 125 ppm,"[2]; Table 1, rate 125 ppm",60%
same,pest or weed control at 125 ppm,"[3]; Table 1, rate 125 ppm",70%
same,pest or weed control at 125 ppm,"[4]; Table 1, rate 125 ppm",90%
same,melting point,,189 to 190 °C
"COC(=O)c1nc(-c2ccc(Cl)s2)cc(N)c1Cl [Compound 98, Methyl 4-amino-3-chloro-6-(5-chloro-2-thienyl)pyridine-2-carboxylate]",pest or weed control at 125 ppm,"[1]; Table 1, rate 125 ppm",90%
same,pest or weed control at 125 ppm,"[2]; Table 1, rate 125 ppm",70%
same,pest or weed control at 125 ppm,"[3]; Table 1, rate 125 ppm",50%
same,pest or weed control at 125 ppm,"[4]; Table 1, rate 125 ppm",90%
"COC(=O)c1nc(-c2ccc(Cl)cn2)cc(N)c1Cl [Compound 111, Methyl 4-amino-3-chloro-6-(5-chloro-2-pyridyl)pyridine-2-carboxylate]",pest or weed control at 250 ppm,[1]; Table 1,100%
same,pest or weed control at 250 ppm,[2]; Table 1,80%
same,pest or weed control at 250 ppm,[3]; Table 1,70%
same,pest or weed control at 250 ppm,[4]; Table 1,100%
same,melting point,,145 to 150 °C
"COC(=O)c1nc(-c2ccc(C)nn2)cc(N)c1Cl [Compound 121, Methyl 4-amino-3-chloro-6-(3-(6-methyl)pyridazinyl)pyridine-2-carboxylate]",Post-emergent % control XANST,"[1]; Table 2, rate 125 ppm",100%
same,Post-emergent % control CYPES,"[2]; Table 2, rate 125 ppm",80%
same,Post-emergent % control ECHCG,"[3]; Table 2, rate 125 ppm",80%
same,Post-emergent % control CHEAL,"[4]; Table 2, rate 125 ppm",90%
"Nc1cc(-c2ccc(F)cc2Cl)nc(C(=O)O)c1Cl [Compound 170, 4-Amino-3-chloro-6-(2-chloro-4-fluorophenyl)pyridine-2-carboxylic acid]",pest or weed control at 500 ppm,[1]; [5],100%
same,pest or weed control at 500 ppm,"[2]; Table 1, rate 500 ppm",70%
same,pest or weed control at 500 ppm,"[3]; Table 1, rate 500 ppm",80%
same,pest or weed control at 500 ppm,"[4]; Table 1, rate 500 ppm",100%
same,melting point,,156 to 157 °C
"Nc1c(Cl)c(C(=O)O)nc(-c2ccc(C(F)(F)F)cc2)c1Cl [Compound 171, 4-Amino-3′,5-dichloro-6-[4-(trifluoromethyl)phenyl]pyridine-2-carboxylic acid]",Post-emergent % control XANST,[1]; [5],100%
same,Post-emergent % control CYPES,"[2]; Table 1, rate 500 ppm",60%
same,Post-emergent % control ECHCG,"[3]; Table 1, rate 500 ppm",80%
same,Post-emergent % control CHEAL,"[4]; Table 1, rate 500 ppm",95%
"Nc1c(F)c(-c2ccc(Cl)cc2)nc(C(=O)O)c1Cl [Compound 183, 4-Amino-3-chloro-5-fluoro-6-(4-chlorophenyl)pyridine-2-carboxylic acid]",pest or weed control at 125 ppm,"[1]; Table 2, rate 125 ppm",100%
same,pest or weed control at 125 ppm,"[2]; Table 2, rate 125 ppm",100%
same,pest or weed control at 125 ppm,"[3]; Table 2, rate 125 ppm",100%
same,pest or weed control at 125 ppm,"[4]; Table 2, rate 125 ppm",100%
"Nc1c(F)c(-c2ccc(Cl)cc2Cl)nc(C(=O)O)c1Cl [Compound 199, 4-Amino-3-chloro-5-fluoro-6-(2,4-dichlorophenyl)pyridine-2-carboxylic acid]",pest or weed control at 250 ppm,[1]; Table 1,100%
same,pest or weed control at 125 ppm,"[1]; Table 2, rate 125 ppm",100%
same,pest or weed control at 250 ppm,[2]; Table 1,95%
same,pest or weed control at 125 ppm,"[2]; Table 2, rate 125 ppm",90%
same,pest or weed control at 250 ppm,[3]; Table 1,85%
same,pest or weed control at 125 ppm,"[3]; Table 2, rate 125 ppm",80%
same,pest or weed control at 250 ppm,[4]; Table 1,100%
same,pest or weed control at 125 ppm,"[4]; Table 2, rate 125 ppm",100%
same,melting point,,152 °C
"Nc1c(F)c(C(=O)O)nc(-c2ccc(C(F)(F)F)cc2)c1F [Compound 200, 4-Amino-3,5-fluoro-6-(4-(trifluoromethyl)phenyl)pyridine-2-carboxylic acid]",Post-emergent % control XANST,[1]; [5],100%
same,Post-emergent % control XANST,"[1]; Table 2, rate 125 ppm",90%
same,Post-emergent % control CYPES,"[2]; Table 1, rate 500 ppm",90%
same,Post-emergent % control CYPES,"[2]; Table 2, rate 125 ppm",90%
same,Post-emergent % control ECHCG,"[3]; Table 1, rate 500 ppm",95%
same,Post-emergent % control ECHCG,"[3]; Table 2, rate 125 ppm",70%
same,Post-emergent % control CHEAL,"[4]; Table 1, rate 500 ppm",95%
same,Post-emergent % control CHEAL,"[4]; Table 2, rate 125 ppm",80%
"Nc1c(F)c(C(=O)O)nc(-c2ccc(Cl)cc2F)c1F [Compound 206, 4-Amino-3,5-difluoro-6-(4-chloro-2-fluorophenyl)pyridine-2-carboxylic acid]",pest or weed control at 500 ppm,[1]; [5],99%
same,pest or weed control at 500 ppm,"[2]; Table 1, rate 500 ppm",70%
same,pest or weed control at 500 ppm,"[3]; Table 1, rate 500 ppm",85%
same,pest or weed control at 500 ppm,"[4]; Table 1, rate 500 ppm",95%
same,melting point,,155 to 156 °C
"Nc1cc(-c2ccc(Cl)s2)nc(C(=O)O)c1Cl [Compound 215, 4-Amino-3-chloro-6-(5-chloro-2-thienyl)pyridine-2-carboxylic acid]",pest or weed control at 125 ppm,"[1]; Table 1, rate 125 ppm",100%
same,pest or weed control at 125 ppm,"[2]; Table 1, rate 125 ppm",70%
same,pest or weed control at 125 ppm,"[3]; Table 1, rate 125 ppm",70%
same,pest or weed control at 125 ppm,"[4]; Table 1, rate 125 ppm",100%
same,melting point,,178 to 179 °C
"Nc1cc(-c2cc3ccccc3o2)nc(C(=O)O)c1Cl [Compound 219, 4-Amino-6-(2-benzofuranyl)-3-chloropyridine-2-carboxylic acid]",pest or weed control at 250 ppm,[1]; Table 1,100%
same,pest or weed control at 250 ppm,[2]; Table 1,0%
same,pest or weed control at 250 ppm,[3]; Table 1,80%
same,pest or weed control at 250 ppm,[4]; Table 1,100%
same,melting point,,151 °C
"Nc1cc(-c2cc3ccccc3s2)nc(C(=O)O)c1Cl [Compound 224, 4-Amino-3-chloro-6-(2-benzothienyl)pyridine-2-carboxylic acid]",pest or weed control at 125 ppm,"[1]; Table 1, rate 125 ppm",100%
same,pest or weed control at 125 ppm,"[2]; Table 1, rate 125 ppm",30%
same,pest or weed control at 125 ppm,"[3]; Table 1, rate 125 ppm",85%
same,pest or weed control at 125 ppm,"[4]; Table 1, rate 125 ppm",100%
same,melting point,,176 °C
